Where only a bound is given, the exact number is not on record here.

Data on twelve compounds can be found in patent US11969002B2, “Savoury and mouthfulness taste enhancers” (LUCTA, S.A., priority 2018, dated 2024).

The assay relates to kokumi and/or umami taste. The assay is described as follows: Sensory test: taste threshold in model broth (duo-trio test, sensory panel). In kind it is in vivo. The conditions noted are these: for taste quality with the savoury taste threshold in model broth: descriptor in brackets after the threshold value; for minimal effective concentration: duo-trio-test ISO 10399:2017, model broth as constant blank, successive 1:2 dilutions in model broth, panel value averaged over three sessions, read-out: savoury taste threshold in model broth. The text has this:
This sensory test allowed evaluating the capacity of the compounds of formula (IA), (IB), (IC), (ID), (IE), (IF), (IG), (IH) and (IJ) as defined above to enhance taste; particularly kokumi and/or umami taste. This test allowed measuring the taste threshold of the mixtures comprising an amount from 86% to 99% by weight measured by quantitative proton-NMR of a compound of formula (IA), (IB), (IC), (ID), (IE), (IF), (IG), (IH) and (IJ) in model broth. The “taste threshold” refers to the minimum taste stimulus needed to detect the presence of a compound of formula (IA), (IB), (IC), (ID), (IE), (IF), (IG), (IH) and (IJ) of the present invention. The lower the taste threshold, the greater the capacity as enhancer; particularly greater the capacity as kokumi and/or umami enhancer.
Samples • Diluted samples of the mixtures comprising a compound of formula (IA), (IB), (IC), (ID), (IE), (IF), (IG) and (IJ) in an amount from 86% to 99% by weight measured by quantitative proton-NMR with model broth. • Model broth as constant […]. • Diluted samples of comparative samples with model broth: • Comparative compound 1: 5-(aminomethyl)-2-methylpyrimidin-4-amine (Berkshire, United Kingdom) • Comparative compound 2: (4-amino-2-methylpyrimidin-5-yl)methanol (Carbosynth-Berkshire, United Kingdom) • Comparative compound 3: Thiamine (Sigma-Aldrich, Steinheim, Germany)
Model broth: The model broth comprises the following composition: 1.9 g/L of sodium Sodium chloride (Sigma Aldrich, Steinheim, Germany); 1.9 g/L of mono sodium L-glutatmate (Merck, Darmastadt, Germany); 6.4 g/L of Maltodextrin (Sigma Aldrich, Steinheim, Germany); and 2.1 g/L yeast extract (Gistex GSX II, DSM Food specialities Savoury Ingredients; Delft, Netherlands). The model broth is prepared by mixing the ingrediets under agitation in an ultrasonic bath.
Diluted samples of the mixtures comprising a compound of formula (IA), (IB), (IC), (ID), (IE), (IF), (IG), (IH) and (IJ) in an amount from 86% to 99% by weight measured by quantitative proton-NMR of the present invention: The pH value of each individual mixture comprising an amount from 86% to 99% by weight measured by quantitative proton-NMR of a compound of formula (IA), (IB), (IC), (ID), (IE), (IF), (IG), (IH) and (IJ) was adjusted to 5.4 by the addition of the appropriate amount of formic acid. Each individual pH adjusted mixture thus obtained was diluted 1:2 successively with the model broth to obtain diluted solutions of the mixture comprising a compound of formula formula (IA), (IB), (IC), (ID), (IE), (IF), (IG), (IH) and (IJ) in a concentration from 10 μmol/L to 1000 μmol/L measured by quantitative proton-NMR.
Diluted samples of the comparative compounds 1-3. A mixture of each individual comparative compound 1-3 with model broth was prepared by successively dilution 1:2 of each individual comparative compound with model broth to obtain the diluted comparative solutions having a concentration from 10 μmol/L to 1000 μmol/L measured by quantitative proton-NMR of the comparative compound.
The diluted solutions of the present invention and the comparative solutions falling outside the scope of protection of the present invention obtained above were presented to the panelists with increasing concentrations of the tested solutions by means of the duo-trio-test according to ISO 10399:2017; using the model broth as constant blank. The panelists were asked to mark the differing samples.
The taste threshold is calculated by means of the geometric mean. The geometric mean of the last and the second last concentration was calculated and taken as the individual threshold. The threshold value of the sensory panel was approximated by averaging the threshold values of the individuals in three independent sessions. Values between individuals and separate sessions differed not more than two dilution steps (cf. Lawless, Harry T. “Sensory Evaluation of Food”. Springer, 2nd edition, 2010, pp. 125-145)

As to `Cc1ncc(CSC[C@H](N)C(=O)O)c(N)n1` (single isomer, unassigned) [Mixture comprising (IA), S-((4-amino-2-methylpyrimidin-5-yl)methyl)-L-cysteine], the “taste quality with the savoury taste threshold in model broth” value (from here on “taste quality”) was “kokumi” and the minimal effective concentration is 120 µM.
As to `CC(=O)C(CCO)SCc1cnc(C)nc1N` (single isomer, unassigned) [Mixture comprising (IB), 3-(((4-amino-2-methylpyrimidin-5-yl)methyl)thio)-5-hydroxy-pentan-2-one], the “taste quality” value is reported as “kokumi” and the minimal effective concentration amounted to 40 µM.
Regarding `Cc1ncc(CSCC(N)C(=O)NCC(=O)O)c(N)n1` (single isomer, unassigned) [Mixture comprising (IC), S-((4-amino-2-methylpyrimidin-5-yl)methyl)cysteinylglycine], the “taste quality” value is given as “kokumi” and the minimal effective concentration was found to be 880 µM.
On to `Cc1ncc(CSCC2NC(=O)CNC2=O)c(N)n1` (single isomer, unassigned) [Mixture comprising (ID), 3-((((4-amino-2-methylpyrimidin-5-yl)methyl)thio)methyl)piperazine-2,5-dione], for which the “taste quality” value is “kokumi” and the minimal effective concentration came out at 255 µM.
For `CCC(SCc1cnc(C)nc1N)C(C)=O` (single isomer, unassigned) [Mixture comprising (IE), 3-(((4-amino-2-methylpyrimidin-5-yl)methyl)thio)pentan-2-one], the “taste quality” value is listed as “kokumi” and the minimal effective concentration is 35 µM.
For `Cc1ncc(CSc2ccoc2C)c(N)n1` (single isomer, unassigned) [Mixture comprising (IF), 2-methyl-5-(((2-methylfuran-3-yl)thio)methyl)pyrimidin-4-amine], the “taste quality” value is recorded as “kokumi” and the minimal effective concentration stood at 50 µM.
The corresponding values for `Cc1ncc(CSCc2ccco2)c(N)n1` (single isomer, unassigned) [Mixture comprising (IG), 5-(((furan-2-ylmethyl)thio)methyl)-2-methylpyrimidin-4-amine] are “kokumi” and 120 µM.
The corresponding values for `CSCc1cnc(C)nc1N` (single isomer, unassigned) [Mixture comprising (IH), 2-methyl-5-((methylthio)methyl)pyrimidin-4-amine] are “kokumi” and 70 µM.
The corresponding values for `Cc1ncc(CS)c(N)n1` (single isomer, unassigned) [Mixture comprising (IJ), (4-amino-2-methylpyrimidin-5-yl)methanethiol] are “kokumi” and 80 µM.
For `Cc1ncc(CN)c(N)n1` [Comparative compound 1, 5-(aminomethyl)-2-methylpyrimidin-4-amine, reference compound], the minimal effective concentration is more than 1100 µM.
Consider `Cc1ncc(CO)c(N)n1` [Comparative compound 2, (4-amino-2-methylpyrimidin-5-yl)methanol, reference compound], for which the “taste quality” value is given as “kokumi” and the minimal effective concentration amounted to 700 µM.
With `Cc1ncc(C[n+]2csc(CCO)c2C)c(N)n1` [Comparative compound 3, Thiamine, reference compound], the minimal effective concentration was 1200 µM.
